biological target: GST-tagged truncated human mutant G2019S LRRK2 (Homo sapiens, UniProt Q5S007, G2019S); assay: LRRK2 G2019S Km ATP LanthaScreen assay; assay type: biochemical; conditions: 134 μM ATP (Km ATP), LRRKtide substrate, mean IC50 values; read-out: LRRK2 pIC50 (converted)
How it was run: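 LanthaScreen TR-FRET read with fluorescein-LRRKtide and 134 μM ATP (Km) in Tris pH 8.5/10 mM MgCl2 buffer. The enzyme was preincubated 15 min with compound at room temperature, and the reaction ran 90 min at ambient temperature. Stopped with EDTA plus Tb anti-phospho-LRRKtide antibody; the 520/495 nm ratio gave a 4-parameter logistic IC50, mean of several runs.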

Point of comparison: `CC(C)(O)Cn1cc(Nc2ncc3cc(Cl)c(N4C[C@H]5CC[C@@H](C4)[C@@]5(C)O)cc3n2)cn1` [Ex-3.32, (8-syn)-3-(6-chloro-2-{[1-(2-hydroxy-2-methylpropyl)-1H-pyrazol-4-yl]amino}quinazolin-7-yl)-8-methyl-3-azabicyclo[3.2.1]octan-8-ol], IC50 0.393 nM. Against it:
- Cc1c(Nc2ncc3cc(Cl)c(N4CCN(C5(C)COCC5O)CC4)cc3n2)cnn1C1CC1 (single isomer, unassigned) [Ex-6.22, (3S,4S) or (3R,4R) 4-(4-{6-chloro-2-[(1-cyclopropyl-5-methyl-1H-pyrazol-4-yl)amino]quinazolin-7-yl}piperazin-1-yl)-4-methyloxolan-3-ol] — 85-fold higher, 33.5 nM
- Cc1c(Nc2ncc3cc(Cl)c(N4CCN(C5(C)COC5)CC4)cc3n2)cnn1CC(C)(C)O [Ex-4.55, 1-[4-({6-chloro-7-[4-(3-methyloxetan-3-yl)piperazin-1-yl]quinazolin-2-yl}amino)-5-methyl-1H-pyrazol-1-yl]-2-methylpropan-2-ol] — 28-fold higher, 11.1 nM
- Cc1c(Nc2ncc3cc(Cl)c(N4CCC(C)(O)C(C)C4)cc3n2)cnn1C1CC1 (single isomer, unassigned) [Ex-3.48, (3R,4R) or (3S,4S) or (3R,4S) or (3S,4R) 1-{6-chloro-2-[(1-cyclopropyl-5-methyl-1H-pyrazol-4-yl)amino]quinazolin-7-yl}-3,4-dimethylpiperidin-4-ol] — 3.7-fold higher, 1.46 nM
- OC1CN(c2cc3nc(Nc4cnn(CC(F)F)c4Cl)ncc3cc2Cl)C1 [Ex-1.18, 1-(6-chloro-2-{[5-chloro-1-(2,2-difluoroethyl)-1H-pyrazol-4-yl]amino}quinazolin-7-yl)azetidin-3-ol] — 48-fold higher, 18.9 nM
- CC1(n2ncc(Nc3ncc4cc(Cl)c(N5CC6(CN(CC(F)(F)F)C6)C5)cc4n3)c2Cl)CC1 [Ex-4.38, 6-chloro-N-[5-chloro-1-(1-methylcyclopropyl)-1H-pyrazol-4-yl]-7-[6-(2,2,2-trifluoroethyl)-2,6-diazaspiro[3.3]heptan-2-yl]quinazolin-2-amine] — 75-fold higher, 29.4 nM
- Cc1cc2cnc(Nc3cnn(C45CC(C4)C5)c3Cl)nc2cc1N1CCN(C2COCC2O)CC1 (single isomer, unassigned) [Ex-13.3, (3S,4S) or (3R, 4R)-4-(4-(2-((1-(bicyclo[1.1.1]pentan-1-yl)-5-chloro-1H-pyrazol-4-yl)amino)-6-methylquinazolin-7-yl)piperazin-1-yl)tetrahydrofuran-3-ol] — 18-fold higher, 6.98 nM
- Cn1nc(Cl)cc1Nc1ncc2cc(Cl)c(N3CCN(C4(C)COCC4O)CC3)cc2n1 (stereo not drawn) — 15-fold higher, 5.97 nM
- O[C@@H]1COCC12CCN(c1cc3nc(Nc4cnn(C5CC5)c4Cl)ncc3cc1Cl)CC2 [Ex-3.3] — 44-fold higher, 17.2 nM
- CC1(O)CC2(CN(c3cc4nc(Nc5cnn(C6CC6)c5)ncc4cc3Cl)C2)C1 [Ex-4.23, 2-{6-chloro-2-[(1-cyclopropyl-1H-pyrazol-4-yl)amino]quinazolin-7-yl}-6-methyl-2-azaspiro[3.3]heptan-6-ol] — 6.3-fold higher, 2.47 nM
- Cc1cc2cnc(Nc3cnn(C45CC(C4)C5)c3Cl)nc2cc1N1CCN(C2COCC2O)CC1 (single isomer, unassigned) [Ex-5.12, (3S,4S) or (3R,4R) 4-(4-(2-((1-(bicyclo[1.1.1]pentan-1-yl)-5-chloro-1H-pyrazol-4-yl)amino)-6-methylquinazolin-7-yl)piperazin-1-yl)tetrahydrofuran-3-ol] — 13-fold higher, 5.17 nM
- Cc1c(Nc2ncc3cc(Cl)c(N4CCN(C5CCCC5C#N)CC4)cc3n2)cnn1C1CC1 (single isomer, unassigned) [Ex-1.7, (3S,4S or 3R,4R)-2-(4-{6-chloro-2-[(1-cyclopropyl-5-methyl-1H-pyrazol-4-yl)amino]quinazolin-7-yl}piperazin-1-yl)cyclopentane-1-carbonitrile] — 18-fold higher, 6.91 nM
- CCn1ncc(Nc2ncc3cc(Cl)c(N4CCC(C)(O)CC4)cc3n2)c1F [Ex-6.3, 1-{6-chloro-2-[(1-ethyl-5-fluoro-1H-pyrazol-4-yl)amino]quinazolin-7-yl}-4-methylpiperidin-4-ol] — 26-fold higher, 10.3 nM
- CC1(Cn2ncc(Nc3ncc4cc(Cl)c(N5CCN(C6(C)COC6)CC5)cc4n3)c2Cl)COC1 [Ex-4.52, 6-chloro-N-{5-chloro-1-[(3-methyloxetan-3-yl)methyl]-1H-pyrazol-4-yl}-7-[4-(3-methyloxetan-3-yl)piperazin-1-yl]quinazolin-2-amine] — 4.8-fold higher, 1.89 nM
- CC(C)(O)Cn1ncc(Nc2ncc3cc(Br)c(NCC4CC4)nc3n2)c1Cl [Ex-15.1, 1-[4-({6-Bromo-7-[(cyclopropylmethyl)amino]pyrido[2,3-d]pyrimidin-2-yl}amino)-5-chloro-1H-pyrazol-1-yl]-2-methylpropan-2-ol] — 93-fold higher, 36.7 nM
- Cc1c(Nc2ncc3cc(Cl)c(N4CCN(C5COC5)[C@@H](C)C4)cc3n2)cnn1CCF [Ex-4.14, 6-chloro-N-[1-(2-fluoroethyl)-5-methyl-1H-pyrazol-4-yl]-7-[(3S)-3-methyl-4-(oxetan-3-yl)piperazin-1-yl]quinazolin-2-amine] — 2.5-fold higher, 0.969 nM
- CC1(O)CCN(c2c(Cl)cc3cnc(Nc4cnn(C56CC(C5)C6)c4Cl)nc3c2Cl)CC1 [Ex-6.12, 1-(2-{[1-(bicyclo[1.1.1]pentan-1-yl)-5-chloro-1H-pyrazol-4-yl]amino}-6,8-dichloroquinazolin-7-yl)-4-methylpiperidin-4-ol] — 3.2-fold higher, 1.24 nM
- Cc1c(Nc2ncc3cc(Cl)c(N4CCN(C)C(C)(C)C4)cc3n2)cnn1CC(F)F [Ex-1.3] — 460-fold higher, 180 nM
- CC1(N2CCN(c3cc4nc(Nc5cnn(C6CC6)c5Cl)ncc4cc3Cl)CC2)COC1 [Ex-4.58, 6-chloro-N-(5-chloro-1-cyclopropyl-1H-pyrazol-4-yl)-7-[4-(3-methyloxetan-3-yl)piperazin-1-yl]quinazolin-2-amine] — 5.9-fold higher, 2.32 nM
- Cc1c(Nc2ncc3cc(Cl)c(N4CCC(C)(O)CC4)cc3n2)cnn1C1CC1(F)F (single isomer, unassigned) [Ex-6.10, 1-(6-chloro-2-{[1-(2,2-(R) or (S)difluorocyclopropyl)-5-methyl-1H-pyrazol-4-yl]amino}quinazolin-7-yl)-4-methylpiperidin-4-ol] — 2-fold lower, 0.2 nM
- Cn1cc(Nc2ncc3ccc(N4C(=O)C5CCC4C5)cc3n2)c(C(F)(F)F)n1 (stereo not drawn) [Ex-7.9, 2-(2-{[1-methyl-3-(trifluoromethyl)-1H-pyrazol-4-yl]amino}quinazolin-7-yl)-2-azabicyclo[2.2.1]heptan-3-one] — 87-fold higher, 34 nM
- CN(C)c1cc2nc(Nc3cnn(C4CC4(F)F)c3Cl)ncc2cc1Cl (single isomer, unassigned) [Ex-3.42, (R) or (S) 6-chloro-N~2~-[5-chloro-1-(2,2-difluorocyclopropyl)-1H-pyrazol-4-yl]-N~7~,N~7~-dimethylquinazoline-2,7-diamine] — 19-fold higher, 7.37 nM
- Cc1c(Nc2ncc3ccc(N4C(=O)OC[C@@H]4C)cc3n2)cnn1C1C[C@@H](C)O[C@@H](C)C1 (single isomer, unassigned) [Ex-7.4] — 17-fold higher, 6.75 nM
- FC(F)Cn1ncc(Nc2ncc3cc(Cl)c(N4CCC(N5CCCC5)CC4)cc3n2)c1Cl [Ex-1.16, 6-chloro-N-[5-chloro-1-(2,2-difluoroethyl)-1H-pyrazol-4-yl]-7-[4-(pyrrolidin-1-yl)piperidin-1-yl]quinazolin-2-amine] — 41-fold higher, 16 nM
- OC1CN(C2CCN(c3cc4nc(Nc5cnn(C6CC6)c5Cl)ncc4cc3Cl)CC2)C1 [Ex-1.37, 1-(1-{6-chloro-2-[(5-chloro-1-cyclopropyl-1H-pyrazol-4-yl)amino]quinazolin-7-yl}piperidin-4-yl)azetidin-3-ol] — 4.4-fold higher, 1.71 nM
- O[C@@H]1COC[C@@H]1N1CCN(c2nc3nc(Nc4cnn(C5CC5)c4Cl)ncc3cc2Cl)CC1 (single isomer, unassigned) [Ex-16.1, (3S,4S) or (3R, 4R)-4-(4-(6-Chloro-2-((5-chloro-1-cyclopropyl-1H-pyrazol-4-yl)amino)pyrido[2,3-d]pyrimidin-7-yl)piperazin-1-yl)tetrahydrofuran-3-ol] — 40-fold higher, 15.6 nM
- Cc1cc2cnc(Nc3cnn(C45CC(F)(C4)C5)c3Cl)nc2cc1N1CCNCC1 [Ex-5.15, N-(5-chloro-1-(3-fluorobicyclo[1.1.1]pentan-1-yl)-1H-pyrazol-4-yl)-6-methyl-7-(piperazin-1-yl)quinazolin-2-amine] — 64-fold higher, 25.1 nM
- Cc1c(Nc2ncc3cc(Cl)c(N4CCC(C)(O)C(C)C4)cc3n2)cnn1C1CC1 (single isomer, unassigned) [Ex-3.50, (3R,4R) or (3S,4S) or (3R,4S) or (3S,4R) 1-{6-chloro-2-[(1-cyclopropyl-5-methyl-1H-pyrazol-4-yl)amino]quinazolin-7-yl}-3,4-dimethylpiperidin-4-ol] — 2.1-fold higher, 0.821 nM
- COC1CC(Cn2ncc(Nc3ncc4cc(Cl)c(N5CCN(C6(C)COC6)CC5)cc4n3)c2Cl)C1 (stereo not drawn) [Ex-4.69, 6-chloro-N-{5-chloro-1-[(3-methoxycyclobutyl)methyl]-1H-pyrazol-4-yl}-7-[4-(3-methyloxetan-3-yl)piperazin-1-yl]quinazolin-2-amine] — 8.2-fold higher, 3.23 nM
- CC1(N2CCN(c3nc4nc(Nc5cnn(CC(F)F)c5Cl)ncc4cc3Cl)CC2)COC1 [Ex-15.2, 6-chloro-N-[5-chloro-1-(2,2-difluoroethyl)-1H-pyrazol-4-yl]-7-[4-(3-methyloxetan-3-yl)piperazin-1-yl]pyrido[2,3-d]pyrimidin-2-amine] — 150-fold higher, 60.8 nM
- C[C@H]1COC(=O)N1c1ccc2cnc(Nc3cn(C4CCCCC4)nc3Cl)nc2c1 [Ex-10.1, (S)-3-(2-((3-Chloro-1-cyclohexyl-1H-pyrazol-4-yl)amino)quinazolin-7-yl)-4-methyloxazolidin-2-one] — 18-fold higher, 7.01 nM
- Cc1cc(Nc2ncc3cc(Cl)c(N4CCC(C)(O)CC4)cc3n2)sn1 [Ex-6.8, 1-{6-chloro-2-[(3-methyl-1,2-thiazol-5-yl)amino]quinazolin-7-yl}-4-methylpiperidin-4-ol] — 41-fold higher, 16.3 nM
- Cn1ncc(Nc2ncc3cc(Cl)c(N4CCN(C5(C)COC5)CC4)cc3n2)c1Cl [Ex-4.47, 6-chloro-N-(5-chloro-1-methyl-1H-pyrazol-4-yl)-7-[4-(3-methyloxetan-3-yl)piperazin-1-yl]quinazolin-2-amine] — 22-fold higher, 8.56 nM

From patent US20230303540A1 (Merck Sharp & Dohme LLC, priority 2020, published 2023)
